Where a name gives a salt, the structure may show the parent alone.
Columns and labels:
hNav1.7 [1] = biological target: T1, hNav1.7 (Homo sapiens (Human), UniProt Q15858); assay: Tritiated compound binding to membranes from cells heterologously expressing hNav1.7 and the β1 subunit (Nav1.7 LBA); conditions: competitive binding vs [3H]compound, membranes with hNav1.7 and β1 subunit; read-out: Nav1.7 LBA EVO IC50
In short: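 Membranes from cells expressing hNav1.7 with β1 were incubated at room temperature with a tritiated competitive Nav1.7 inhibitor plus test compound in 100 mM NaCl, 20 mM Tris pH 7.4, 0.01% BSA; nonspecific binding was set with 1 μM unlabeled compound. Incubation was 18 h with […] radioligand, or 3 h with […]. Bound ligand was filtered and counted, and IC50 came from a 4-parameter fit.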
Target sequence in this assay (Q15858 whole entry, looked up): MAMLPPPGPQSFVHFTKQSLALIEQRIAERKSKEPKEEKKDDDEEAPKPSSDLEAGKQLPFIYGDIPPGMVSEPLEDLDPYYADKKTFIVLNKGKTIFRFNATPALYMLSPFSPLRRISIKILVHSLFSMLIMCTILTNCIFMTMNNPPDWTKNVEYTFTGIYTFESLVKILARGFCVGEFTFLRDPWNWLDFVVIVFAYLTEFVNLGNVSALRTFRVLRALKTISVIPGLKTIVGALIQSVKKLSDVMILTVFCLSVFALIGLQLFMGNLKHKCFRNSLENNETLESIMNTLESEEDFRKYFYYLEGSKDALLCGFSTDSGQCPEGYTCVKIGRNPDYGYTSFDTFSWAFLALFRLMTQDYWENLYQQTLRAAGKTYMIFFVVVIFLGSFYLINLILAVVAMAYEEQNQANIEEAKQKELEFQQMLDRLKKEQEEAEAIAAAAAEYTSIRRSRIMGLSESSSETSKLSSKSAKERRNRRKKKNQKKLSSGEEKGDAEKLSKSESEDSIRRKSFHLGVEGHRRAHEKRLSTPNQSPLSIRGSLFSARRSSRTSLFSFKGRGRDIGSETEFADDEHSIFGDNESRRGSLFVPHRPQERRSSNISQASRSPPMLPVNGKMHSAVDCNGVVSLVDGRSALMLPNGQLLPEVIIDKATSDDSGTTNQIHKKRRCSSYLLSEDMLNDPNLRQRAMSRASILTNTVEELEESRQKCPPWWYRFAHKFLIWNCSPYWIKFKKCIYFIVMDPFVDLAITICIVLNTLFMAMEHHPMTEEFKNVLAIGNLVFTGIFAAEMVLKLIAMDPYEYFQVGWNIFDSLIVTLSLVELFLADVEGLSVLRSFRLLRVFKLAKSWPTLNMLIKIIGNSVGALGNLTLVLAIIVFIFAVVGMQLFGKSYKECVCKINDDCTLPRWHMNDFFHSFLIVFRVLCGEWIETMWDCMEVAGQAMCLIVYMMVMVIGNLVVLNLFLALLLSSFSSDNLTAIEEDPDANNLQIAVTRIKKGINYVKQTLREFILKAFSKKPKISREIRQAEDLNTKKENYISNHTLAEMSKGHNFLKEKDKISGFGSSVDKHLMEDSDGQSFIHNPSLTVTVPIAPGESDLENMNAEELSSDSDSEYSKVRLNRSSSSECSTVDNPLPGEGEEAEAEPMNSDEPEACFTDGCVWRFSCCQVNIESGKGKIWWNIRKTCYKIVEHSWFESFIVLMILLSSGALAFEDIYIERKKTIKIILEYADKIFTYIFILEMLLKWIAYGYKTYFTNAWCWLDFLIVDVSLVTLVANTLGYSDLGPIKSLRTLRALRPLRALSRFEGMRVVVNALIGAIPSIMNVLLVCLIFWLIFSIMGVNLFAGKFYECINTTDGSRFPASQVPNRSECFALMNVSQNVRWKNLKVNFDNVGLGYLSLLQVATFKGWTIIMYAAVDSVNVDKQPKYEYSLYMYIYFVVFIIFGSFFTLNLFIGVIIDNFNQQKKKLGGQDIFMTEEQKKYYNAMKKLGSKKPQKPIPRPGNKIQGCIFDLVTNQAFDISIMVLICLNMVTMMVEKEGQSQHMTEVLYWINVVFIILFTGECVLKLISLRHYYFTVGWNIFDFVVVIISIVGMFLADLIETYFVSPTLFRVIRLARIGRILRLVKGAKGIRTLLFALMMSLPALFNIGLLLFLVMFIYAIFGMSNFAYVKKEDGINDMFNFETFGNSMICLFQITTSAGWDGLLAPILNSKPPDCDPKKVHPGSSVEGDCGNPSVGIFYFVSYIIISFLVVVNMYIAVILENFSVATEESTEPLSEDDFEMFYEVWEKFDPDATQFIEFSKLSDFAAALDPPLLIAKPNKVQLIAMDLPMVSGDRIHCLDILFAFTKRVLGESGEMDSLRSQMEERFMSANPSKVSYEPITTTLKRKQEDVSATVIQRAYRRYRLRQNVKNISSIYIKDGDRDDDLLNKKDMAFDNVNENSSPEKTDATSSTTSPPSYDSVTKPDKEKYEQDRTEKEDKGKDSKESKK
Target sequence in this assay (Q07699 whole entry partner, looked up): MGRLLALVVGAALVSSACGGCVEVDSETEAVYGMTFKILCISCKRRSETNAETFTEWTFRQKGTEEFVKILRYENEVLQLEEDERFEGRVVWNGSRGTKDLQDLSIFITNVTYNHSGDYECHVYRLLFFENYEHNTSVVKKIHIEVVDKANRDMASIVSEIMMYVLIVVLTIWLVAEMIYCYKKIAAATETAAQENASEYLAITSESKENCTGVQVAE

hNav1.7 [2] = biological target: T1, hNav1.7; assay: Electrophysiological assay (EP), voltage clamp on Syncropatch 384PE, CHO cells stably expressing Nav1.7; type: cell-based; conditions: holding potential −50 mV, 7.5 min compound incubation, read-out: EP_SP hNav1.7 EVO IC50
In short: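 Whole-cell automated patch clamp was run on CHO cells stably expressing human Nav1.7 cDNA, with internal solution CsCl/EGTA pH 7.2, external solution 80 mM NaCl pH 7.4, and 0.1% Pluronic F-127. From a −50 mV holding potential: −10 mV for 10 ms, −150 mV for 20 ms, then −10 mV for 10 ms, where current was measured. Inhibition was taken after 7.5 min compound incubation, with TTX added for full block.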
Target sequence in this assay (Q15858 other isoform, or with tags, fused parts or gaps): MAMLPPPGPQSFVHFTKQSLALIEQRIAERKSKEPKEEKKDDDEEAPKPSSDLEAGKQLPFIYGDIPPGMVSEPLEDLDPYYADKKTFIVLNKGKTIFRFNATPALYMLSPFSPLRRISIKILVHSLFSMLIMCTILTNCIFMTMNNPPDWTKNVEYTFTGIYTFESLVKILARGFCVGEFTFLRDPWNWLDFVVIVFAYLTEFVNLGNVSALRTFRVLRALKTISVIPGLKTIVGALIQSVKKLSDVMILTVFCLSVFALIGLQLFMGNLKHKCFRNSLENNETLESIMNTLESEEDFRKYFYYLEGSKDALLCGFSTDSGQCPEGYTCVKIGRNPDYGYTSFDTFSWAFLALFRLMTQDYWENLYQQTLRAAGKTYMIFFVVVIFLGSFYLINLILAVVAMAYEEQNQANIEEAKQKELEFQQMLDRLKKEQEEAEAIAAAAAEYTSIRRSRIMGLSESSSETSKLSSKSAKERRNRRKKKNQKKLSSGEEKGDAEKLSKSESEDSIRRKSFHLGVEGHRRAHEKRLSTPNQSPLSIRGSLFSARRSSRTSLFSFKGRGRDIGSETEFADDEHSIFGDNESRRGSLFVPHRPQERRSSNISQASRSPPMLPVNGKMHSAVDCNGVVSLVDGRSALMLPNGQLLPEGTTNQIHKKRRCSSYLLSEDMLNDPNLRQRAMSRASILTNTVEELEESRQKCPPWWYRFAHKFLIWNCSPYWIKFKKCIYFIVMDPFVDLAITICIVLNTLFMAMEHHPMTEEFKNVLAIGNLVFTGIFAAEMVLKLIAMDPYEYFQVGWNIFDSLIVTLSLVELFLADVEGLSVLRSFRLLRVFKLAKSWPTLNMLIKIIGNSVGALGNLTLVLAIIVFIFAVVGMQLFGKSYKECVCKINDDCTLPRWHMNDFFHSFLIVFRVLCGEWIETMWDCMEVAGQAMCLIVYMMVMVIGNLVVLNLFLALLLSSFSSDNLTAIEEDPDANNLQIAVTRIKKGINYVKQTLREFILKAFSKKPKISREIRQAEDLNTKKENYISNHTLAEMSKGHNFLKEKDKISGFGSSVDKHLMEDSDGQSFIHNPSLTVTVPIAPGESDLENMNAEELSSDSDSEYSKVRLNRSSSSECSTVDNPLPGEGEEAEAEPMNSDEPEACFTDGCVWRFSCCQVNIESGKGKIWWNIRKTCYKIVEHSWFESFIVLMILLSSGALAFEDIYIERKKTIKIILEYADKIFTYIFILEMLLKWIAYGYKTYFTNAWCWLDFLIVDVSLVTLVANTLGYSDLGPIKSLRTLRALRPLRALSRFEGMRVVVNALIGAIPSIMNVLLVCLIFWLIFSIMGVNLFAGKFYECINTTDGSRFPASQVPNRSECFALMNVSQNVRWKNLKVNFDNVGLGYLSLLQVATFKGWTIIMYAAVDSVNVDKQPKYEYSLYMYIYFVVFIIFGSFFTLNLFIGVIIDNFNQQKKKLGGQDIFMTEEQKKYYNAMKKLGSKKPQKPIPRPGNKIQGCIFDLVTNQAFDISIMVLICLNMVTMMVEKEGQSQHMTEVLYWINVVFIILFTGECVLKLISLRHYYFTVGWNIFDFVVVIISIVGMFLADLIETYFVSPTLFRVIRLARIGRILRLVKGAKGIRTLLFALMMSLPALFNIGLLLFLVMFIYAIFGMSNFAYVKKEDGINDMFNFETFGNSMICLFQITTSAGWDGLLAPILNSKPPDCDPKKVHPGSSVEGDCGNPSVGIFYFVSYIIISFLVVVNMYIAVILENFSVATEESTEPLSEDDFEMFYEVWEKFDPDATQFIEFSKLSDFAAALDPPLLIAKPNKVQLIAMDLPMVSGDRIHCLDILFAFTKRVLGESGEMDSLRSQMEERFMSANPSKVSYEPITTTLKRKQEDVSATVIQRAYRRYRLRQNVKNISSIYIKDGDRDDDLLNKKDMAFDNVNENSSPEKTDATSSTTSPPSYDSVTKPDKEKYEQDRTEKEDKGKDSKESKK

| Compound | IC50 (hNav1.7 [1]) [nM] | IC50 (hNav1.7 [2]) [nM] |
| --- | --- | --- |
| CN(C)[C@H]1C[C@@H](c2cccc(F)c2)CC[C@@H]1Nc1cc(F)c(S(=O)(=O)Nc2ccncn2)cc1Cl [Example 26, 5-Chloro-4-(((1S,2S,4S)-2-(dimethylamino)-4-(3-fluorophenyl)cyclohexyl)amino)-2-fluoro-N-(pyrimidin-4-yl)benzenesulfonamide formate] | 11.8 | 2.97 |
| CN(C)[C@H]1C[C@@H](c2cccc(C(F)(F)F)c2)CC[C@@H]1Nc1c(F)cc(S(=O)(=O)Nc2ccncn2)cc1F [Example 88, 4-(((1S,2S,4S)-2-(Dimethylamino)-4-(3-(trifluoromethyl)phenyl)cyclohexyl)amino)-3,5-difluoro-N-(pyrimidin-4-yl)benzenesulfonamide] | 170 | 17 |
| CC(C)[C@H](N)C(=O)N[C@H]1C[C@@H](c2cccc(C(F)(F)F)c2)CC[C@@H]1Nc1cc(F)c(S(=O)(=O)Nc2ccncn2)cc1Cl [Example 30, (S)-2-Amino-N-((1S,2S,5S)-2-((2-chloro-5-fluoro-4-(N-(pyrimidin-4-yl)sulfamoyl)-phenyl)amino)-5-(3-(trifluoromethyl)phenyl)cyclohexyl)-3-methylbutanamide formate] | 37.5 | 28.4 |
| CN(C)[C@H]1C[C@@H](c2cccc(C(F)(F)F)c2)CC[C@@H]1N1C(=O)CCc2cc(S(=O)(=O)Nc3ccncn3)c(F)cc21 [Example 55, 1-((1S,2S,4S)-2-(Dimethylamino)-4-(3-(trifluoromethyl)phenyl)cyclohexyl)-7-fluoro-2-oxo-N-(pyrimidin-4-yl)-1,2,3,4-tetrahydroquinoline-6-sulfonamide] | 6.73 | 2.68 |
| Cc1cccc([C@H]2CC[C@H](Nc3cc(F)c(S(=O)(=O)Nc4ccncn4)cc3Cl)[C@@H](N(C)C)C2)c1 [Example 11, 5-Chloro-4-(((1S,2S,4S)-2-(dimethylamino)-4-(m-tolyl)cyclohexyl)amino)-2-fluoro-N-(pyrimidin-4-yl)benzenesulfonamide formate] | 7.57 | 1.64 |
| O=S(=O)(Nc1ccncn1)c1cc(F)c(N[C@H]2CC[C@H](c3cc(C(F)(F)F)ccc3F)C[C@@H]2N2CCCC2)cc1F [Example 50, 2,5-difluoro-4-(((1S,2S,4S)-4-(2-fluoro-5-(trifluoromethyl)phenyl)-2-(pyrrolidin-1-yl)cyclohexyl)amino)-N-(pyrimidin-4-yl)benzenesulfonamide] | 3.88 | 1.21 |
| CN(C)[C@H]1C[C@@H](c2cccc(C(F)(F)F)c2)CC[C@@H]1n1c(=O)oc2cc(S(=O)(=O)Nc3ccncn3)c(F)cc21 [Example 3, 3-((1S,2S,4S)-2-(Dimethylamino)-4-(3-(trifluoromethyl)phenyl)cyclohexyl)-5-fluoro-2-oxo-N-(pyrimidin-4-yl)-2,3-dihydrobenzo[d]oxazole-6-sulfonamide formate] | 83.1 | 26.2 |
| 5-Chloro-4-(((3 S,4S,6S)-7,7-dichloro-4-(dimethylamino)-6-(3-(trifluoromethyl)phenyl)-bicyclo[4.1.0]heptan-3-yl)amino)-2-fluoro-N-(pyrimidin-4-yl)benzenesulfonamide [Example 52] | 2000 | 496 |
| CN(C)[C@H]1C[C@@H](c2cccc(C(F)(F)F)c2)CC[C@@H]1N(C)c1cc(F)c(S(=O)(=O)Nc2ccncn2)cc1Cl [Example 51, 5-Chloro-4-(((1S,2S,4S)-2-(dimethylamino)-4-(3-(trifluoromethyl)phenyl)cyclohexyl)-(methyl)amino)-2-fluoro-N-(pyrimidin-4-yl)benzenesulfonamide formate] | 169 | 4.65 |
| 4-(((1S,2S,4S)-2-(azetidin-3-yl(methyl)amino)-4-(3-(trifluoromethyl)phenyl)cyclohexyl)oxy)-5-chloro-2-fluoro-N-(pyrimidin-4-yl)benzenesulfonamide [Example 80] | 0.39 | 0.317 |
| O=S(=O)(Nc1ccncn1)c1cc(F)c(N[C@H]2CC[C@H](c3cccc(C(F)(F)F)c3F)C[C@@H]2N2CCCC2)cc1F [Example 70, 2,5-difluoro-4-(((1S,2S,4S)-4-(2-fluoro-3-(trifluoromethyl)phenyl)-2-(pyrrolidin-1-yl)cyclohexyl)-amino)-N-(pyrimidin-4-yl)benzenesulfonamide hydrochloride] | 7.22 | 0.966 |
| CN(C)[C@H]1C[C@@H](c2cc(Cl)ccc2Cl)CC[C@@H]1Oc1cc(F)c(S(=O)(=O)Nc2ccncn2)cc1Cl [Example 65, 5-chloro-4-(((1S,2S,4S)-4-(2,5-dichlorophenyl)-2-(dimethylamino)cyclohexyl)oxy)-2-fluoro-N-(pyrimidin-4-yl)benzenesulfonamide formate] | 5.41 | 1.03 |
| CN(C)[C@H]1C[C@@H](Cc2cccc(C(F)(F)F)c2)CC[C@@H]1Nc1cc(F)c(S(=O)(=O)Nc2ccncn2)cc1Cl [Example 8, 5-chloro-4-(((1S,2S,4R)-2-(dimethylamino)-4-(3-(trifluoromethyl)benzyl)cyclohexyl)amino)-2-fluoro-N-(pyrimidin-4-yl)benzenesulfonamide] | 6.45 | 0.991 |
| CN(C)[C@H]1C[C@@H](c2cccc(-n3cccn3)c2)CC[C@@H]1Nc1cc(F)c(S(=O)(=O)Nc2ccncn2)cc1Cl [Example 20, 4-(((1S,2S,4S)-4-(3-(1H-pyrazol-1-yl)phenyl)-2-(dimethylamino)cyclohexyl)amino)-5-chloro-2-fluoro-N-(pyrimidin-4-yl)benzenesulfonamide formate] | 9.43 | 7.38 |
| CN(C)[C@H]1C[C@@H](c2cccc(C(F)(F)F)c2)CC[C@@H]1n1ccc2cc(S(=O)(=O)Nc3ccncn3)c(F)cc21 [Example 10, 1-((1S,2S,4S)-2-(Dimethylamino)-4-(3-(trifluoromethyl)phenyl)cyclohexyl)-6-fluoro-N-(pyrimidin-4-yl)-1H-indole-5-sulfonamide formate] | 25.8 | 2.74 |

Other lines, results leading:

| IC50 (hNav1.7 [1]) [nM] | IC50 (hNav1.7 [2]) [nM] | Compound |
| --- | --- | --- |
| 1.57 | 0.355 | CN(C)[C@H]1C[C@@H](c2cc(Cl)cc(Cl)c2)CC[C@@H]1Oc1cc(F)c(S(=O)(=O)Nc2ccncn2)cc1Cl [Example 82, 5-chloro-4-(((1S,2S,4S)-4-(3,5-dichlorophenyl)-2-(dimethylamino)cyclohexyl)oxy)-2-fluoro-N-(pyrimidin-4-yl)benzenesulfonamide formate] |
| 0.67 | 0.263 | CN(C)[C@H]1C[C@@H](c2cccc(C3(C(F)(F)F)CC3)c2)CC[C@@H]1Nc1cc(F)c(S(=O)(=O)Nc2ccncn2)cc1Cl [Example 18, 5-chloro-4-(((1S,2S,4S)-2-(dimethylamino)-4-(3-(1-(trifluoromethyl)cyclopropyl)phenyl)-cyclohexyl)amino)-2-fluoro-N-(pyrimidin-4-yl)benzenesulfonamide] |
| 1.37 | 0.519 | CN(C)[C@H]1C[C@@H](c2cccc(C(F)(F)F)c2)CC[C@@H]1Nc1cc(F)c(S(=O)(=O)Nc2ccncn2)cc1OC(F)F [Example 5, 5-(Difluoromethoxy)-4-(((1S,2S,4S)-2-(dimethylamino)-4-(3-(trifluoromethyl)phenyl)-cyclohexyl)amino)-2-fluoro-N-(pyrimidin-4-yl)benzenesulfonamide formate] |
| 0.473 | 0.531 | CN(C)[C@H]1C[C@@H](c2cc(C(F)(F)F)cc(C(F)(F)F)c2)CC[C@@H]1Nc1cc(F)c(S(=O)(=O)Nc2ccncn2)cc1Cl [Example 12, 4-(((1S,2S,4S)-4-(3,5-bis(trifluoromethyl)phenyl)-2-(dimethylamino)cyclohexyl)amino)-5-chloro-2-fluoro-N-(pyrimidin-4-yl)benzenesulfonamide] |
| 0.681 | 0.694 | O=CO.[2H]C([2H])([2H])N([C@H]1C[C@@H](c2cccc(C(F)(F)F)c2)CC[C@@H]1Nc1cc(F)c(S(=O)(=O)Nc2ccncn2)cc1Cl)C([2H])([2H])[2H] [Example 9, 4-[[(1S,2S,4S)-2-[bis(trideuteriomethyl)amino]-4-[3-(trifluoromethyl)phenyl]-cyclohexyl]amino]-5-chloro-2-fluoro-N-pyrimidin-4-yl-benzenesulfonamide formate] |
| 3.56 | 2.25 | CN(C)CC(=O)N(C)[C@H]1C[C@@H](c2cccc(C(F)(F)F)c2)CC[C@@H]1Nc1cc(F)c(S(=O)(=O)Nc2ccncn2)cc1Cl [Example 29, N-((1S,2S,5S)-2-((2-chloro-5-fluoro-4-(N-(pyrimidin-4-yl)sulfamoyl)phenyl)amino)-5-(3-(trifluoromethyl)phenyl)cyclohexyl)-2-(dimethylamino)-N-methylacetamide formate] |
| 1.36 | 0.652 | CN(C)[C@H]1C[C@@H](c2cc(C(F)(F)F)cc(C(F)(F)F)c2)CC[C@@H]1Nc1cc(F)c(S(=O)(=O)Nc2ccncn2)cc1F [Example 13, 4-(((1S,2S,4S)-4-(3,5-bis(trifluoromethyl)phenyl)-2-(dimethylamino)cyclohexyl)amino)-2,5-difluoro-N-(pyrimidin-4-yl)benzenesulfonamide] |
| 2.59 | 0.732 | CN(CCO)[C@H]1C[C@@H](c2cccc(C(F)(F)F)c2)CC[C@@H]1Oc1cc(F)c(S(=O)(=O)Nc2ccncn2)cc1Cl [Example 66, 5-chloro-2-fluoro-4-(((1S,2S,4S)-2-((2-hydroxyethyl)(methyl)amino)-4-(3-(trifluoromethyl)-phenyl)cyclohexyl)oxy)-N-(pyrimidin-4-yl)benzenesulfonamide formate] |
